The results in this text go back to the NIST ThermoML archive (doi:10.1016/j.fluid.2016.01.044).

For series [1] the following is noted: Crystal; DTA.
The nature of series [2]: Molar enthalpy of transition or fusion. To be noted: Crystal; DSC.

Structures are written as SMILES. Numbers after ± are expanded uncertainties.

As for `CCCCCCCCCC` [decane], the Normal melting temperature in series [1] is -28.52 ± 0.5 °C. The “Molar enthalpy of transition or fusion” value in series [2] stood at 6.89 ± 0.196 kcal/mol. As for `CCCCCCCCCCCCCCCC(=O)OCC` [ethyl hexadecanoate], the Normal melting temperature in series [1] amounted to 24.78 ± 0.5 °C.

As for `CCCCCCCCCCCC(=O)OCC` [ethyl dodecanoate], in series [1], the Normal melting temperature is -0.20 ± 0.5 °C. Further, the “Molar enthalpy of transition or fusion” value in series [2] amounted to 9.15 ± 0.263 kcal/mol.
